Laboratory results from patent US11421264B2, “Thiol-containing cleave reagents and oxidative wash” (IsoPlexis Corporation, priority 2015, dated 2022).
Where a name gives a salt, the structure may show the parent alone.

What was measured:
[1] = Cleavage of nucleotide with dithio 3′ protective group and dithio based linker by cleavage agents (RP-HPLC, FIG. 78); settings: RP-HPLC after 10 minutes of incubation with cleave reagent
Text: In addition to these a variety of suitable cleaving agents can be used such as Bis(2-mercaptoethyl)sulfone (BMS) and N,N′-dimethyl-N,N′-bis(mercaptoacetyl)hydrazine (DMH) (Singh et al., Bioorg. Chem., 22, 109-115 (1994). Reactions can be further catalyzed by inclusion of selenols (Singh et al. Anal Biochem. 1995 Nov. 20; 232(1):86-91 [18]). Borohydrides, such as sodium borohydrides can also be used for this purpose (Stahl et al., Anal. Chem., 1957, 29 (1), pp 154-155 [19]) as well as ascorbic acid (Nardai et al., J. Biol. Chem. 276, 8825-8828 (2001)). In addition, enzymatic methods for cleavage of disulfide bonds ae also well known such as disulfide and thioreductase and can be used with compounds of the present invention (Holmgren et. al., Methods in Enzymology, Volume 252, 1995, Pages 199-208 [21]).

[2] = Cleavage of 3′-(MeSSCH2) capped nucleotide with attached disulfide linker by thiol based cleave reagents (LC-MS); settings: for Compound C [%]: fully cleaved product; for Compound C [%] / Compound B [%] / Compound A [%]: Compound A 0.2 mM, cleave agent 20 mM, buffer 200 mM TE pH 8.5, 10 min @ 65 degree C.; for Compound B [%]: partly cleaved product; for Compound A [%]: starting nucleotide left, relative peak area at 280
Method: The structures of these cleave reagents are shown. See, FIG. 83. The cleavage products were then characterized by liquid chromatography/mass spectrometry ((LC/MS). See, FIG. 84. Compounds A, B and C are shown in FIG. 82A-82C.
This example presents a general method for cleavage studies as presented herein.
A stock solution of 100 mM cleave reagent (see Table-1) was prepared in 1.0 M TE buffer (pH 8.5, Sigma #T9285) in a 15.0 mL centrifuge tube. Then an aliquot of 20 μL (2,000 nmol) of it was diluted with 76.9 uL distilled water in a 1.0 mL centrifuge tube and added with 3.07 μL of 6.5 mM MeSSdUTP-ARA-NH2 (11, 20 nmol) to obtain—100 litL of total volume (Final concentration: 20 mM cleaving agent, 0.2 mM nucleotide, 200 mM TE buffer). The mixture tube was heated at 65 degree C. on a pre-heated thermocycler by shaking gently. The mixture was immediately analyzed by LC-MS after 10 minutes. The % conversion was determined by relative peak areas of the respective peaks extracted at 280 mu wavelength.

| Compound | identified composition of reaction mixture: cleavage of linker and 3′-protective group [1] | Compound C [%] [2] [%] | Compound B [%] [2] [%] | Compound A [%] [2] [%] | cleavage of both the capping group and the linker ([2]; in less than ten (10) minutes at 65° C. in TRIS buffer (pH 8.5)) |
| --- | --- | --- | --- | --- | --- |
| O[C@H](CS)[C@H](O)CS (racemic) [DTT, dithiothreitol] | full cleavage of both linker and the 3′-protective groups | 100 | 0 | 0 |  |
| NCCS [Cysteamine] | full cleavage of both linker and the 3′-protective groups | 100 | 0 | 0 |  |
| O=S(=O)(O)CC(S)CS (centres unmarked) [Dimercaptopropanesulfonate, 2,3-Dimercapto-1-propanesulfonic acid sodium salt] |  | 100 | 0 | 0 |  |
| OC(=S)CCC(O)=S [Dithiosuccinic acid] |  |  |  |  | complete cleavage was not observed |
| N[C@@H](CS)C(=O)O [L-Cysteine] | full cleavage of both linker and the 3′-protective groups | 100 | 0 | 0 |  |
| Dithiosuccinic acid | selective cleavage of 3′-O-protective group | 50 | 50 | 0 |  |
